Values joined by “and” are separate entries in the source; they are usually repeats but may differ in a detail not shown here. Identical values can stand only once.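 In this assay, cells in 96-well plates receive the compound at five concentrations for 48 hours. Endpoints are linearly interpolated between the surrounding concentrations. Here, GI50 denotes the concentration required for 50% inhibition of growth. TGI is the concentration that stops growth completely.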
What was measured:
Assay in all cases: DTP human tumour cell line panel, 48 h
[1] = tested on: HCT-116 colon
[2] = tested on: NCI-H522 lung
[3] = tested on: HOP-62 NSCLC
[4] = tested on: SF-268 CNS
[5] = tested on: SW-620 colon
[6] = tested on: HT29 colon
[7] = tested on: T-47D breast
[8] = tested on: EKVX NSCLC
[9] = tested on: UO-31 renal
[10] = tested on: COLO 205 colon

Structure (SMILES) | TGI [1] | TGI [2] | TGI [3] [µM] | TGI [4] | TGI [5] | TGI [6] | TGI [7] [µM] | TGI [8] | TGI [9] [µM] | TGI [10] | GI50 [2] | GI50 [3]
O=C1CCC2(CCO1)OCCO2 | > 100 µM | > 100 µM | > 100 | > 100 µM | > 100 µM | > 100 µM | > 100 | > 100 µM | > 100 | – | – | –
O=C1NC(=O)/C(=C/c2ccc(S(=O)(=O)N/N=C/c3ccc(Cl)cc3)cc2)N1 | > 100 µM | – | > 100 | > 100 µM | > 100 µM | > 100 µM | > 100 | > 100 µM | > 100 | > 100 µM | – | –
CC1OC2=N[C@@H]1C(=O)N[C@@H](C(C)C)C1=N[C@H](C(=O)N[C@@H](C(C)C)C3=N[C@H](C(=O)N[C@@H](C(C)C)C4=N[C@H](C(=O)N[C@H]2C(C)C)C(C)O4)C(C)O3)C(C)O1 (some centres undefined) | – | > 10 µM | > 10 | > 10 µM | > 10 µM | > 10 µM | > 10 | > 10 µM | > 10 | > 10 µM | – | –
COc1cc2c(cc1OCCCC(=O)Nc1cc(C(=O)Nc3cc(C(=O)Nc4cc(C(=O)NCCCN(C)C)n(C)n4)n(C)n3)n(C)n1)N=CC1CCCN1C2=O (centres undefined) | > 100 µM | – | > 100 | 89.3 µM | > 100 µM | 51.3 µM | > 100 | > 100 µM | 16.6 | > 100 µM | – | –
CC[N+]1(C)CCC(O)(/C=C/c2ccc(OC)cc2)C(C(=O)/C=C/c2ccc(OC)cc2)C1 (centres undefined) | > 48.3 µM | – | 42.9 | > 59.7 µM | 7.42 µM | > 74.5 µM | 24.6 | > 71.1 µM | 26.6 | 8.08 µM | – | –
Nc1ncnc2c1ncn2C1CCC(COS(N)(=O)=O)C1 (centres undefined) | > 100 µM | – | > 100 | > 100 µM | > 100 µM | > 100 µM | > 100 | > 100 µM | > 100 | > 100 µM | – | –
[Cl][Pt+2][Cl].[NH-]C1CCCCC1[NH-] (centres undefined) | > 100 µM and 16 µM | 20.7 µM and 38.2 µM and 12.4 µM | > 100 | 56.7 µM and > 100 µM and > 58.3 µM | 44.1 µM and > 56.4 µM and 13.1 µM | > 100 µM and 31 µM | – | > 100 µM and 55.2 µM and 31.1 µM | > 100 | > 49.5 µM and > 70.4 µM and 13.6 µM | 3.31 µM and 5.88 µM and 1.49 µM | 53.7 µM and > 100 µM and 22.3 µM
C/C(=N\NC(=S)N1CCCCC1)c1cccc(C)n1 | – | 10.6 µM | – | 4.23 µM | 18.3 µM | 16.2 µM | 16.9 | 31.2 µM | 1.53 | 13.7 µM | – | –
CCOP(=O)(OCC)C(Nc1cccc(F)c1)c1ccccc1 (centres undefined) | > 100 µM | > 100 µM | > 100 | > 100 µM | – | > 100 µM | > 100 | > 100 µM | > 100 | > 100 µM | – | –
Cc1ccc(C(C)(C)C[P+](C)(c2ccccc2)c2ccccc2)cc1 | > 58.1 µM | 19.1 µM | 75.9 | > 100 µM | > 100 µM | 43.8 µM | – | > 100 µM | > 85 | 18.7 µM | – | –
C[C@@H](O)C(=O)N1[C@@H]2CC3CC[C@]2(CS1(=O)=O)C3(C)C | > 100 µM | – | > 100 | – | > 100 µM | > 100 µM | > 100 | > 100 µM | > 100 | > 100 µM | – | –
N/N=C1/C2CN3CCN(C2)CC1(c1ccc([N+](=O)[O-])cc1)C3 | > 100 µM | > 100 µM | > 100 | > 100 µM | > 100 µM | > 100 µM | – | > 100 µM | > 100 | > 100 µM | – | –
CCOC(=O)C(=[N+]=[N-])C(=O)Nc1nn2nnnc2c2ccccc12 | > 100 µM | > 100 µM | > 100 | – | > 100 µM | > 100 µM | – | > 100 µM | > 100 | > 100 µM | – | –
CC1(C)OCC(C(O)C2OC(C)(C)OC2C=O)O1 (centres undefined) | > 100 µM | – | > 100 | > 100 µM | > 100 µM | > 100 µM | – | > 100 µM | > 100 | > 100 µM | – | –
O=[N+]([O-])c1ccc(S[C@@H]2[C@H]3c4c(-c5ccccc5)[nH]c(-c5ccccc5)c4[C@@H]2C[C@H]3Cl)cc1 | 7.86 µM | 14.1 µM | 67.6 | 25.7 µM | > 100 µM | > 100 µM | 8.67 | – | 28.4 | > 100 µM | – | –
CC(=O)Nc1ccc(C(=O)NN2C(=O)C(Cl)C2c2ccc([N+](=O)[O-])cc2)cc1 (centres undefined) | > 100 µM | > 100 µM | > 100 | > 100 µM | > 100 µM | > 100 µM | – | > 100 µM | > 100 | > 100 µM | – | –
COc1ccc(NC(=O)C(=O)Cc2nc3ccc([N+](=O)[O-])cc3[nH]c2=O)c(OC)c1 | > 100 µM | > 100 µM | – | – | > 100 µM | > 100 µM | – | > 100 µM | > 100 | > 100 µM | – | –

Reference: PubChem BioAssay (NCI)
